Reference: ChEMBL document CHEMBL1641578, “Design and synthesis of 3-(azol-1-yl)phenylpropanes as microbicidal spermicides for prophylactic contraception” (Bioorg Med Chem Lett, 2011)
In brackets after ≈: the same amount, converted by molar mass.

Assays:
[1] = system: Spermatozoa; test: Spermicidal activity against human spermatozoa assessed as immobilization measured for 60 seconds by visual scoring; assay type: functional; design: concentration or dose not given beside the values
[2] = system: Candida albicans; test: Antifungal activity against Candida albicans isolate CDRI after 48 hrs by broth microdilution assay; assay type: functional
[3] = system: Candida albicans; test: Antifungal activity against Candida albicans MTCC-183 after 48 hrs by broth microdilution assay; assay type: functional; settings: MTCC-183, 48 h
[4] = system: Candida parapsilosis; test: Antifungal activity against Candida parapsilosis after 48 hrs by broth microdilution assay; assay type: functional; settings: Lodderomyces parapsilosis
[5] = system: Candida albicans; test: Antifungal activity against Candida albicans after 48 hrs by broth microdilution assay; assay type: functional
[6] = Toxicity against Lactobacillus acidophilus at 200 ug/ml after 24 hrs by microplate reader
[7] = system: Candida albicans; test: Antifungal activity against Candida albicans NCIM-3557 after 48 hrs by broth microdilution assay; assay type: functional; settings: NCIM-3557, 48 h
[8] = system: HeLa; test: Cytotoxicity against human HeLa cells at 200 ug/ml after 24 hrs by MTT based colorimetric assay; assay type: cell-based
[9] = system: Trichomonas vaginalis; test: Antitrichomonas activity against Trichomonas vaginalis after 48 hrs by trypan blue exclusion assay; assay type: functional

Structure (SMILES) | Activity [1] | MIC [2] | MIC [3] | MIC [4] | MIC [5] | Activity [6] | MIC [7] | Activity [8] | MIC [9]
O=C(CCn1ccnc1)c1ccccc1 | 100% | 50 µg/mL (≈ 250 µM) | > 50 µg/mL | > 50 µg/mL | > 50 µg/mL | Non-toxic | > 50 µg/mL | Non-toxic | > 200 µg/mL
O=C(CCn1cnc2ccccc21)c1ccccc1 | 100% | 25 µg/mL (≈ 99.9 µM) | > 50 µg/mL | 50 µg/mL (≈ 200 µM) | 25 µg/mL (≈ 99.9 µM) | Non-toxic | 50 µg/mL (≈ 200 µM) | Non-toxic | 200 µg/mL (≈ 799 µM)
O=C(CCn1cncn1)c1ccccc1 | 60% | 50 µg/mL (≈ 248 µM) | > 50 µg/mL | > 50 µg/mL | > 50 µg/mL | Non-toxic | > 50 µg/mL | Non-toxic | > 200 µg/mL
O=C(CCn1nnc2ccccc21)c1ccccc1 | 80% | > 50 µg/mL | > 50 µg/mL | 50 µg/mL (≈ 199 µM) | > 50 µg/mL | Non-toxic | 50 µg/mL (≈ 199 µM) | Non-toxic | 200 µg/mL (≈ 796 µM)
Cc1nccn1CCC(=O)c1ccccc1 | 100% | 50 µg/mL (≈ 233 µM) | > 50 µg/mL | > 50 µg/mL | > 50 µg/mL | Non-toxic | > 50 µg/mL | Toxic | > 200 µg/mL
O=C(CCn1cnc([N+](=O)[O-])c1)c1ccccc1 | 100% | 50 µg/mL (≈ 204 µM) | > 50 µg/mL | > 50 µg/mL | 50 µg/mL (≈ 204 µM) | Non-toxic | > 50 µg/mL | Non-toxic | 25 µg/mL (≈ 102 µM)
Cc1ncc([N+](=O)[O-])n1CCC(=O)c1ccccc1 | 90% | 50 µg/mL (≈ 193 µM) | > 50 µg/mL | > 50 µg/mL | > 50 µg/mL | Non-toxic | > 50 µg/mL | Non-toxic | 50 µg/mL (≈ 193 µM)
OC(CCn1ccnc1)c1ccccc1 (stereo not given) | 90% | 50 µg/mL (≈ 247 µM) | > 50 µg/mL | > 50 µg/mL | > 50 µg/mL | Non-toxic | > 50 µg/mL | Non-toxic | > 200 µg/mL
OC(CCn1cnc2ccccc21)c1ccccc1 (stereo not given) | 90% | 50 µg/mL (≈ 198 µM) | > 50 µg/mL | > 50 µg/mL | > 50 µg/mL | Non-toxic | > 50 µg/mL | Non-toxic | > 200 µg/mL
OC(CCn1cncn1)c1ccccc1 (stereo not given) | 70% | > 50 µg/mL | > 50 µg/mL | > 50 µg/mL | > 50 µg/mL | Non-toxic | > 50 µg/mL | Non-toxic | > 200 µg/mL
OC(CCn1nnc2ccccc21)c1ccccc1 (stereo not given) | 100% | 50 µg/mL (≈ 197 µM) | > 50 µg/mL | > 50 µg/mL | > 50 µg/mL | Non-toxic | > 50 µg/mL | Non-toxic | > 200 µg/mL
Cc1nccn1CCC(O)c1ccccc1 (stereo not given) | 100% | > 50 µg/mL | > 50 µg/mL | > 50 µg/mL | > 50 µg/mL | Non-toxic | > 50 µg/mL | Non-toxic | > 200 µg/mL
O=[N+]([O-])c1cn(CCC(O)c2ccccc2)cn1 (stereo not given) | 95% | 50 µg/mL (≈ 202 µM) | > 50 µg/mL | > 50 µg/mL | > 50 µg/mL | Non-toxic | > 50 µg/mL | Non-toxic | 25 µg/mL (≈ 101 µM)
Cc1ncc([N+](=O)[O-])n1CCC(O)c1ccccc1 (stereo not given) | 70% | > 50 µg/mL | > 50 µg/mL | > 50 µg/mL | > 50 µg/mL | Non-toxic | > 50 µg/mL | Non-toxic | 50 µg/mL (≈ 191 µM)
FC(F)(F)c1ccc(OC(CCn2cnc3ccccc32)c2ccccc2)cc1 (stereo not given) | 50% | > 50 µg/mL | > 50 µg/mL | > 50 µg/mL | > 50 µg/mL | Toxic | > 50 µg/mL | Toxic | 25 µg/mL (≈ 63.1 µM)
FC(F)(F)c1ccc(OC(CCn2cncn2)c2ccccc2)cc1 (stereo not given) | 100% | > 50 µg/mL | 50 µg/mL (≈ 144 µM) | > 50 µg/mL | 50 µg/mL (≈ 144 µM) | Toxic | > 50 µg/mL | Toxic | 50 µg/mL (≈ 144 µM)
FC(F)(F)c1ccc(OC(CCn2nnc3ccccc32)c2ccccc2)cc1 (stereo not given) | 70% | > 50 µg/mL | > 50 µg/mL | > 50 µg/mL | > 50 µg/mL | Non-toxic | > 50 µg/mL | Non-toxic | > 200 µg/mL
Cc1nccn1CCC(Oc1ccc(C(F)(F)F)cc1)c1ccccc1 (stereo not given) | 100% | 50 µg/mL (≈ 139 µM) | 25 µg/mL (≈ 69.4 µM) | 50 µg/mL (≈ 139 µM) | 25 µg/mL (≈ 69.4 µM) | Toxic | 50 µg/mL (≈ 139 µM) | Toxic | 25 µg/mL (≈ 69.4 µM)
O=[N+]([O-])c1cn(CCC(Oc2ccc(C(F)(F)F)cc2)c2ccccc2)cn1 (stereo not given) | 40% | > 50 µg/mL | > 50 µg/mL | > 50 µg/mL | > 50 µg/mL | Non-toxic | > 50 µg/mL | Non-toxic | 12.5 µg/mL (≈ 31.9 µM)
Cc1ncc([N+](=O)[O-])n1CCC(Oc1ccc(C(F)(F)F)cc1)c1ccccc1 (stereo not given) | 70% | > 50 µg/mL | > 50 µg/mL | > 50 µg/mL | > 50 µg/mL | Non-toxic | > 50 µg/mL | Non-toxic | 25 µg/mL (≈ 61.7 µM)
C(=C\c1ccccc1)/Cn1ccnc1 | 100% | 25 µg/mL (≈ 136 µM) | > 50 µg/mL | 50 µg/mL (≈ 271 µM) | > 50 µg/mL | Non-toxic | > 50 µg/mL | Non-toxic | > 200 µg/mL
O=[N+]([O-])c1cn(C/C=C/c2ccccc2)cn1 | 80% | > 50 µg/mL | > 50 µg/mL | > 50 µg/mL | > 50 µg/mL | Non-toxic | > 50 µg/mL | Non-toxic | 25 µg/mL (≈ 109 µM)
Cc1ncc([N+](=O)[O-])n1C/C=C/c1ccccc1 | 90% | > 50 µg/mL | > 50 µg/mL | > 50 µg/mL | 50 µg/mL (≈ 206 µM) | Non-toxic | > 50 µg/mL | Non-toxic | 25 µg/mL (≈ 103 µM)
FC(F)(F)c1ccc(OC/C=C/c2ccccc2)cc1 | 90% | 50 µg/mL (≈ 180 µM) | > 50 µg/mL | > 50 µg/mL | > 50 µg/mL | Non-toxic | > 50 µg/mL | Non-toxic | > 200 µg/mL
FC(F)(F)c1ccc(OC(CCn2ccnc2)c2ccccc2)cc1 (stereo not given) | 100% | 50 µg/mL (≈ 144 µM) | 50 µg/mL (≈ 144 µM) | 50 µg/mL (≈ 144 µM) | 12.5 µg/mL (≈ 36.1 µM) | Toxic | 50 µg/mL (≈ 144 µM) | Toxic | 12.5 µg/mL (≈ 36.1 µM)
OC(Cn1cncn1)(Cn1cncn1)c1ccc(F)cc1F [FLUCONAZOLE] |  | 0.25 µg/mL (≈ 0.816 µM) | 0.25 µg/mL (≈ 0.816 µM) | 0.5 µg/mL (≈ 1.63 µM) | 0.5 µg/mL (≈ 1.63 µM) |  | 0.25 µg/mL (≈ 0.816 µM) |  | 
Cc1ncc([N+](=O)[O-])n1CCO [METRONIDAZOLE] |  |  |  |  |  |  |  |  | 2 µg/mL (≈ 11.7 µM)
CCCCCCCCCc1ccc(OCCOCCOCCOCCOCCOCCOCCOCCOCCO)cc1 [NONOXYNOL 9] | 100% | > 50 µg/mL | > 50 µg/mL | 50 µg/mL (≈ 81.1 µM) | > 50 µg/mL | Non-toxic | > 50 µg/mL | Non-toxic | 37.4 µg/mL (≈ 60.6 µM)
